Measurements as given in US9434993B2, “Systems for identifying cosmetic agents for skin care compositions” (The Procter & Gamble Company, priority 2011, dated 2016).
“Also recorded” adds a separate entry of the source.

Legend:
[1] = tested on: Telomerized-keratinocytes; assay: Microscopic evaluation of cell morphology, telomerized keratinocytes; format: cell-based, human; settings: 10 μM in DMSO for 6 hr; vs 0.1% DMSO vehicle control
Protocol: (§1) All cells were incubated at 37° C. in a humidified incubator with 5% CO2. At t=−24 hours cells were trypsinized from T-75 flasks and plated into 6-well plates in basal growth medium. At t=0 media was removed and replaced with the appropriate dosing solution as per the experimental design. Dosing solutions were prepared the previous day in sterile 4 ml Falcon snap cap tubes. Pure test materials may be prepared at a concentration of 1-200 μM, and botanical extracts may be prepared at a concentration of 0.001 to 1% by weight of the dosing solution. After 6 to 24 hours of chemical exposure, cells were viewed and imaged. The wells were examined with a microscope before cell lysis and RNA isolation to evaluate for morphologic evidence of toxicity. […] Cells were then lysed with 350 ul/well of RLT buffer containing β-mercaptoethanol (Qiagen, Valencia, Calif.), transferred to a 96-well plate, and stored at −20° C.

BJ fibroblasts = assay: Microscopic evaluation of cell morphology, BJ fibroblasts; format: cell-based, human; settings: 10 μM in DMSO for 6 hr; vs 0.1% DMSO vehicle control
Protocol: as §1

CC1=C(/C=C/C(C)=C/C=C/C(C)=C/C(=O)O)C(C)(C)CCC1 [tRA, all-trans-retinoic acid]
morphology of treated keratinocytes [1]: marked morphologic changes; also recorded: dramatic morphologic changes
morphology of treated fibroblasts (BJ fibroblasts): no apparent morphologic effect
